Measured values: patent publication US9833497B2, “Human originated EGF domain proteins and use of the same” (CHENGDU SOURCEBIO LIMITED-LIABILITY COMPANY, priority 2013, dated 2017)

What was measured:
Format in all cases: cell-based
E. coli BL21 = assay: MIC against Gram-negative bacteria: E. coli BL21; conditions: 10 h cultivation at 37° C.; for MIC E. coli BL21 / MIC (μg/mL) E. coli BL21: 5×10^5 CFU/mL; for MIC E. coli BL21: two-fold serial dilution
Method in brief: (§1)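 Inocula prepared by growing LB cultures at 37° C to 0.5 McFarland, centrifuging at 4000×g, and resuspending in fresh medium. Final density 5×10^5 CFU/mL per well with two-fold dilutions of purified EGF domain protein; shaking incubation at 37° C.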

Pseudomonas aeruginosa = assay: MIC against Gram-negative bacteria: Pseudomonas aeruginosa; conditions: 10 h cultivation at 37° C.; for MIC P. aeruginosa / MIC (μg/mL) P. aeruginosa: 5×10^5 CFU/mL; for MIC P. aeruginosa: two-fold serial dilution
Method in brief: as §1

Citrobacter diversus = assay: MIC against Gram-negative bacteria: Citrobacter diversus; conditions: 10 h cultivation at 37° C.; for MIC C. diversus / MIC (μg/mL) C. diversus: 5×10^5 CFU/mL; for MIC C. diversus: two-fold serial dilution
Method in brief: as §1

Moraxella catarrhalis = assay: MIC against Gram-negative bacteria: Moraxella catarrhalis; conditions: 10 h cultivation at 37° C.; for MIC M. catarrhalis / MIC (μg/mL) M. catarrhalis: 5×10^5 CFU/mL; for MIC M. catarrhalis: two-fold serial dilution
Method in brief: as §1

Proteus mirabilis = assay: MIC against Gram-negative bacteria: Proteus mirabilis; conditions: 10 h cultivation at 37° C.; for MIC P. mirabilis / MIC (μg/mL) P. mirabilis: 5×10^5 CFU/mL; for MIC P. mirabilis: two-fold serial dilution
Method in brief: as §1

E. coli DH5α = assay: Antibacterial activity: MIC and growth curve against E. coli DH5α in 96-well plate; conditions: minimal inhibitory concentration against E. coli DH5α; 96-well plate, 5×10^5 CFU/mL, 37° C., judged after 8 h
Method in brief: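 Log-phase DH5α (OD600 about 0.5, 37° C, 185 rpm in LB) was pelleted, resuspended in fresh LB and seeded at 5×10^5 CFU/mL with recombinant protein at 50, 25 and 12.5 μg/mL (two-fold series), in triplicate. Plates were shaken at 175 rpm, 37° C, and OD600 was read every 30 min. MIC was the lowest concentration with no growth.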

Proteus vulgaris = assay: MIC against Gram-negative bacteria: Proteus vulgaris; conditions: 10 h cultivation at 37° C.; for MIC P. vulgaris / MIC (μg/mL) P. vulgaris: 5×10^5 CFU/mL; for MIC P. vulgaris: two-fold serial dilution
Method in brief: as §1

Serratia marcescens = assay: MIC against Gram-negative bacteria: Serratia marcescens; conditions: 10 h cultivation at 37° C.; for MIC S. marcescens / MIC (μg/mL) S. marcescens: 5×10^5 CFU/mL; for MIC S. marcescens: two-fold serial dilution
Method in brief: as §1

Enterobacter cloacae = assay: MIC against Gram-negative bacteria: Enterobacter cloacae; conditions: 10 h cultivation at 37° C.; for MIC E. cloacae / MIC (μg/mL) E. cloacae: 5×10^5 CFU/mL; for MIC E. cloacae: two-fold serial dilution
Method in brief: as §1

Klebsiella pneumonia = assay: MIC against Gram-negative bacteria: Klebsiella pneumonia; conditions: 10 h cultivation at 37° C.; for MIC K. pneumonia / MIC (μg/mL) K. pneumonia: 5×10^5 CFU/mL; for MIC K. pneumonia: two-fold serial dilution
Method in brief: as §1

Aeromonas hydrophila = assay: MIC against Gram-negative bacteria: Aeromonas hydrophila; conditions: 10 h cultivation at 37° C.; for MIC A. hydrophila / MIC (μg/mL) A. hydrophila: 5×10^5 CFU/mL; for MIC A. hydrophila: two-fold serial dilution
Method in brief: as §1

**Q.** Which “MIC E. coli BL21” value (E. coli BL21) does the source give for “PRT1100 (DIDECASDPCVNGGLCQDLLNKFQCLCDVAFAGERCE; listed as Homo sapiens)” here?
**A.** The value was 25 µg/mL.

**Q.** And the “MIC P. aeruginosa” value (Pseudomonas aeruginosa)?
**A.** The value was 100 µg/mL.

**Q.** What about the “MIC C. diversus” value (Citrobacter diversus) of the same substance?
**A.** Its value is 12.5 µg/mL.

**Q.** What about the “MIC M. catarrhalis” value (Moraxella catarrhalis) of the same substance?
**A.** Its value is 12.5 µg/mL.

**Q.** And the “MIC P. mirabilis” value (Proteus mirabilis)?
**A.** The value was 12.5 µg/mL.

**Q.** What about the MIC (E. coli DH5α) of the same substance?
**A.** Its MIC is 12.5 µg/mL.

**Q.** And the “MIC P. vulgaris” value (Proteus vulgaris)?
**A.** The value was 25 µg/mL.

**Q.** What about the “MIC S. marcescens” value (Serratia marcescens) of the same substance?
**A.** The value was 12.5 µg/mL.

**Q.** And the “MIC E. cloacae” value (Enterobacter cloacae)?
**A.** Its value is 12.5 µg/mL.

**Q.** And the “MIC K. pneumonia” value (Klebsiella pneumonia)?
**A.** The value was 25 µg/mL.

**Q.** And the “MIC A. hydrophila” value (Aeromonas hydrophila)?
**A.** Its value is 100 µg/mL.

**Q.** How did the “MIC (μg/mL) E. coli BL21” value (E. coli BL21; E. coli BL21) turn out when “PRT184 (DLNYCTHHSPCKNGATCSNSGQRSYTCTCRPGYTGVDCE; listed as Homo sapiens)” was run?
**A.** The value was 12.5 µg/mL.

**Q.** And the “MIC (μg/mL) P. aeruginosa” value (Pseudomonas aeruginosa; P. aeruginosa)?
**A.** The value was 25 µg/mL.

**Q.** And the “MIC (μg/mL) C. diversus” value (Citrobacter diversus; C. diversus)?
**A.** Its value is 25 µg/mL.

**Q.** And the “MIC (μg/mL) M. catarrhalis” value (Moraxella catarrhalis; M. catarrhalis)?
**A.** The value was 50 µg/mL.

**Q.** And the “MIC (μg/mL) P. mirabilis” value (Proteus mirabilis; P. mirabilis)?
**A.** The value was 25 µg/mL.

**Q.** And the MIC (E. coli DH5α)?
**A.** The MIC was 25 µg/mL.

**Q.** What about the “MIC (μg/mL) P. vulgaris” value (Proteus vulgaris; P. vulgaris) of the same substance?
**A.** Its value is 12.5 µg/mL.

**Q.** What about the “MIC (μg/mL) S. marcescens” value (Serratia marcescens; S. marcescens) of the same substance?
**A.** The value was 25 µg/mL.

**Q.** What about the “MIC (μg/mL) E. cloacae” value (Enterobacter cloacae; E. cloacae) of the same substance?
**A.** The value was 25 µg/mL.

**Q.** And the “MIC (μg/mL) K. pneumonia” value (Klebsiella pneumonia; K. pneumonia)?
**A.** The value was 50 µg/mL.

**Q.** What about the “MIC (μg/mL) A. hydrophila” value (Aeromonas hydrophila; A. hydrophila) of the same substance?
**A.** Its value is 12.5 µg/mL.

**Q.** With “PRT1149 (APSVCQQDVCHNGGTCHAIFLSSGIVSFQCDCPLHFTGRFCE; listed as Homo sapiens)” as the substance, how does the “MIC E. coli BL21” value (E. coli BL21) read?
**A.** Its value is 25 µg/mL.

**Q.** What about the “MIC P. aeruginosa” value (Pseudomonas aeruginosa) of the same substance?
**A.** Its value is 50 µg/mL.

**Q.** And the “MIC C. diversus” value (Citrobacter diversus)?
**A.** Its value is 12.5 µg/mL.

**Q.** And the “MIC M. catarrhalis” value (Moraxella catarrhalis)?
**A.** The value was 50 µg/mL.

**Q.** And the “MIC P. mirabilis” value (Proteus mirabilis)?
**A.** The value was 12.5 µg/mL.

**Q.** What about the MIC (E. coli DH5α) of the same substance?
**A.** Its MIC is 25 µg/mL.

**Q.** And the “MIC P. vulgaris” value (Proteus vulgaris)?
**A.** Its value is 25 µg/mL.

**Q.** And the “MIC S. marcescens” value (Serratia marcescens)?
**A.** The value was 50 µg/mL.

**Q.** And the “MIC E. cloacae” value (Enterobacter cloacae)?
**A.** Its value is 12.5 µg/mL.

**Q.** And the “MIC K. pneumonia” value (Klebsiella pneumonia)?
**A.** The value was 25 µg/mL.

**Q.** And the “MIC A. hydrophila” value (Aeromonas hydrophila)?
**A.** The value was 50 µg/mL.

**Q.** What does the source list for “PRT1050 (HFSRCPKQYKHYCIKGRCRFVVAEQTPSCVCDEGYIGARCE; listed as Homo sapiens)”?
**A.** MIC E. coli BL21 (E. coli BL21): 12.5 µg/mL; MIC P. aeruginosa (Pseudomonas aeruginosa): 25 µg/mL; MIC C. diversus (Citrobacter diversus): 12.5 µg/mL; MIC M. catarrhalis (Moraxella catarrhalis): 12.5 µg/mL; MIC P. mirabilis (Proteus mirabilis): 12.5 µg/mL; MIC (E. coli DH5α): 25 µg/mL; MIC P. vulgaris (Proteus vulgaris): 50 µg/mL; MIC S. marcescens (Serratia marcescens): 12.5 µg/mL; MIC E. cloacae (Enterobacter cloacae): 25 µg/mL; MIC K. pneumonia (Klebsiella pneumonia): 12.5 µg/mL; MIC A. hydrophila (Aeromonas hydrophila): 25 µg/mL

**Q.** What does the source list for “PRT828 (HGAGCQGLCWCQHGAPCDPISGRCLCPAGFHGHFCE; listed as Homo sapiens)”?
**A.** MIC (μg/mL) E. coli BL21 (E. coli BL21; E. coli BL21): 50 µg/mL; MIC (μg/mL) P. aeruginosa (Pseudomonas aeruginosa; P. aeruginosa): 12.5 µg/mL; MIC (μg/mL) C. diversus (Citrobacter diversus; C. diversus): 12.5 µg/mL; MIC (μg/mL) M. catarrhalis (Moraxella catarrhalis; M. catarrhalis): 50 µg/mL; MIC (μg/mL) P. mirabilis (Proteus mirabilis; P. mirabilis): 25 µg/mL; MIC (E. coli DH5α): 12.5 µg/mL; MIC (μg/mL) P. vulgaris (Proteus vulgaris; P. vulgaris): 12.5 µg/mL; MIC (μg/mL) S. marcescens (Serratia marcescens; S. marcescens): 25 µg/mL; MIC (μg/mL) E. cloacae (Enterobacter cloacae; E. cloacae): 12.5 µg/mL; MIC (μg/mL) K. pneumonia (Klebsiella pneumonia; K. pneumonia): 50 µg/mL; MIC (μg/mL) A. hydrophila (Aeromonas hydrophila; A. hydrophila): 50 µg/mL

**Q.** How did the MIC (E. coli BL21; E. coli BL21) turn out when “PRT1039 (SSGICDEASCIHGGTCTAIKADSYICLCPLGFKGRHCE; listed as Homo sapiens)” was run?
**A.** The MIC was 50 µg/mL.

**Q.** What about the MIC (Pseudomonas aeruginosa; P. aeruginosa) of the same substance?
**A.** The MIC was 50 µg/mL.

**Q.** And the MIC (Citrobacter diversus; C. diversus)?
**A.** Its MIC is 50 µg/mL.

**Q.** And the MIC (Moraxella catarrhalis; M. catarrhalis)?
**A.** The MIC was 12.5 µg/mL.

**Q.** What about the MIC (Proteus mirabilis; P. mirabilis) of the same substance?
**A.** The MIC was 50 µg/mL.

**Q.** And the MIC (E. coli DH5α)?
**A.** The MIC was 50 µg/mL.

**Q.** What about the MIC (Proteus vulgaris; P. vulgaris) of the same substance?
**A.** The MIC was 12.5 µg/mL.

**Q.** And the MIC (Serratia marcescens; S. marcescens)?
**A.** Its MIC is 50 µg/mL.

**Q.** What about the MIC (Enterobacter cloacae; E. cloacae) of the same substance?
**A.** Its MIC is 25 µg/mL.

**Q.** And the MIC (Klebsiella pneumonia; K. pneumonia)?
**A.** Its MIC is 12.5 µg/mL.

**Q.** And the MIC (Aeromonas hydrophila; A. hydrophila)?
**A.** Its MIC is 50 µg/mL.

**Q.** How did the “MIC (μg/mL) E. coli BL21” value (E. coli BL21; E. coli BL21) turn out when “PRT773 (PSNPCQDDPCADNSLCVKLHNTSFCLCLEGYYYNSSTCK; listed as Homo sapiens)” was run?
**A.** The value was 25 µg/mL.

**Q.** What about the “MIC (μg/mL) P. aeruginosa” value (Pseudomonas aeruginosa; P. aeruginosa) of the same substance?
**A.** The value was 12.5 µg/mL.

**Q.** What about the “MIC (μg/mL) C. diversus” value (Citrobacter diversus; C. diversus) of the same substance?
**A.** The value was 12.5 µg/mL.

**Q.** What about the “MIC (μg/mL) M. catarrhalis” value (Moraxella catarrhalis; M. catarrhalis) of the same substance?
**A.** The value was 50 µg/mL.

**Q.** What about the “MIC (μg/mL) P. mirabilis” value (Proteus mirabilis; P. mirabilis) of the same substance?
**A.** The value was 12.5 µg/mL.

**Q.** What about the MIC (E. coli DH5α) of the same substance?
**A.** The MIC was 50 µg/mL.

**Q.** What about the “MIC (μg/mL) P. vulgaris” value (Proteus vulgaris; P. vulgaris) of the same substance?
**A.** The value was 50 µg/mL.

**Q.** What about the “MIC (μg/mL) S. marcescens” value (Serratia marcescens; S. marcescens) of the same substance?
**A.** Its value is 12.5 µg/mL.

**Q.** What about the “MIC (μg/mL) E. cloacae” value (Enterobacter cloacae; E. cloacae) of the same substance?
**A.** Its value is 12.5 µg/mL.

**Q.** And the “MIC (μg/mL) K. pneumonia” value (Klebsiella pneumonia; K. pneumonia)?
**A.** The value was 50 µg/mL.

**Q.** What about the “MIC (μg/mL) A. hydrophila” value (Aeromonas hydrophila; A. hydrophila) of the same substance?
**A.** The value was 50 µg/mL.
